Test results: patent US20220280584A1, “CROTON LECHLERI COMPOSITIONS FOR USE IN TREATING BLEEDING, WOUNDS AND INFECTIONS” (priority 2019, published 2022)
≈ marks a conversion by molar mass, not a printed value. Blank lines part the entries; values can stand above or below the compound they belong to.

Legend:
the cells = conditions: Chen, Planta Med. 60 (1994), cited from earlier work; for Effect on cell proliferation: compounds obtained through extraction; for Wound healing properties / healing effects: Ecuadorian sap
[1] = system: MSSA and MRSA (Staphylococcus aureus); test: MIC, in vitro assay of MSSA and MRSA (2-fold microdilution); format: cell-based; conditions: for MIC: Staphylococcus aureus
[2] = system: MSSA and MRSA (Staphylococcus aureus); test: MBC, in vitro assay of MSSA and MRSA; format: cell-based
S. pyogenes = test: MIC against S. pyogenes (Erythromycin and Tetracycline resistant strains); format: cell-based; conditions: Streptococcus pyogenes, antibiotic screening
Experimental: Tables 14 and 15 show an assay whose setup is same as what was used for screening S. aureus and P. aeruginosa (i.e. 2-fold microdilution). The 20 strains of S. pyogenes assayed were selected from the two rounds of antibiotic screening to identify Erythromycin and Tetracycline resistant strains. […] For this feasibility study, AB-101 Lot 1 and Lot 2 was used. P. aeruginosa ATCC 27853 was tested as a positive control for AB-101 activity.

Compound: Oc1cc(O)c2c(c1)O[C@H](c1cc(O)c(O)c(O)c1)[C@H](O)C2 [Epigallocatechin]
Effect on cell proliferation (the cells): slightly stimulating

Compound: Oc1cc(O)c2c(c1)O[C@H](c1cc(O)c(O)c(O)c1)[C@@H](O)C2 [Gallocatechin]
Effect on cell proliferation (the cells): slightly stimulating

MIC ([1]; strain 1674606, MupirocinR, MSSA): > 256 µg/mL
MIC ([1]; strain 1674607, MupirocinR, MRSA): > 256 µg/mL
MIC ([1]; strain CDC 227, MupirocinS, MRSA): 0.25 to 0.5 µg/mL (≈ 0.499 to 0.999 µM)
MIC ([1]; strain CDC 462, MupirocinS, MSSA): ≤ 0.25 µg/mL
MIC ([1]; strain CDC 464, MupirocinS, MSSA): ≤ 0.25 µg/mL
MIC ([1]; strain CDC 484, MupirocinS, MSSA): ≤ 0.25 µg/mL
MIC ([1]; strain CDC 485, MupirocinS, MSSA): ≤ 0.25 µg/mL
Compound: C/C(=C\C(=O)OCCCCCCCCC(=O)O)C[C@@H]1OC[C@H](C[C@@H]2O[C@H]2[C@@H](C)[C@H](C)O)[C@@H](O)[C@H]1O [Mupirocin]

Compound: COc1ccc2c(=O)oc3c(OC)cc(CCN(C)C)c4c(=O)oc1c2c34 [Taspine]
Activity against MSSA and MRSA (MIC) ([1]; purified extract of taspine, highest concentration tested 50% relative to AB-101 = 10 μg/mL): does not have activity
MIC (% relative to amount in AB-101) ([1]; strain ATCC 29213, QC control, 50% = 10 μg/mL taspine): >50 % relative to amount in AB-101
Activity against MSSA and MRSA (MBC) ([2]; purified extract of taspine): does not have activity
MBC (% relative to amount in AB-101) ([2]; strain ATCC 29213, QC control): >50 % relative to amount in AB-101
Wound healing properties / healing effects (the cells): little healing effects

Compound: CN[C@H](CC(C)C)C(=O)N[C@H]1C(=O)N[C@@H](CC(N)=O)C(=O)N[C@H]2C(=O)N[C@H]3C(=O)N[C@H](C(=O)N[C@H](C(=O)O)c4cc(O)cc(O)c4-c4cc3ccc4O)[C@H](O)c3ccc(c(Cl)c3)Oc3cc2cc(c3O[C@@H]2O[C@H](CO)[C@@H](O)[C@H](O)[C@H]2O[C@H]2C[C@](C)(N)[C@H](O)[C@H](C)O2)Oc2ccc(cc2Cl)[C@H]1O [Vancomycin]
MIC (S. pyogenes; S. pyogenes strain 1744264): 0.5 µg/mL (≈ 0.345 µM)
MIC (S. pyogenes; S. pyogenes strain 1744265): 8 µg/mL (≈ 5.52 µM)
MIC (S. pyogenes; S. pyogenes strain 1744271): 0.5 µg/mL (≈ 0.345 µM)
MIC (S. pyogenes; S. pyogenes strain 1744272): 1 µg/mL (≈ 0.69 µM)
MIC (S. pyogenes; S. pyogenes strain 1744275): 0.25 to 0.5 µg/mL (≈ 0.173 to 0.345 µM)
MIC (S. pyogenes; S. pyogenes strain 1744277): 4 µg/mL (≈ 2.76 µM)
MIC (S. pyogenes; S. pyogenes strain 1744285): 0.5 µg/mL (≈ 0.345 µM)
MIC (S. pyogenes; S. pyogenes strain 2065754): 0.5 µg/mL (≈ 0.345 µM)
MIC (S. pyogenes; S. pyogenes strain 2065755): 0.5 µg/mL (≈ 0.345 µM)
MIC (S. pyogenes; S. pyogenes strain 2065756): 0.5 µg/mL (≈ 0.345 µM)
MIC (S. pyogenes; S. pyogenes strain 2065757): 0.5 µg/mL (≈ 0.345 µM)
MIC (S. pyogenes; S. pyogenes strain 2065759): 0.5 µg/mL (≈ 0.345 µM)
MIC (S. pyogenes; S. pyogenes strain 2065760): 0.5 µg/mL (≈ 0.345 µM)
MIC (S. pyogenes; S. pyogenes strain 2065761): 0.5 µg/mL (≈ 0.345 µM)
MIC (S. pyogenes; S. pyogenes strain 2065762): 0.5 µg/mL (≈ 0.345 µM)
MIC (S. pyogenes; S. pyogenes strain 2065763): 0.5 µg/mL (≈ 0.345 µM)
MIC (S. pyogenes; S. pyogenes strain 2065765): 2 to 4 µg/mL (≈ 1.38 to 2.76 µM)
MIC (S. pyogenes; S. pyogenes strain 20658748): 0.25 to 0.5 µg/mL (≈ 0.173 to 0.345 µM)
MIC (S. pyogenes; S. pyogenes strain 20658749): 0.5 µg/mL (≈ 0.345 µM)
MIC (S. pyogenes; S. pyogenes strain 20658750): 0.5 µg/mL (≈ 0.345 µM)

Compound: COc1ccc([C@H]2Oc3c(OC)cc(CCCO)cc3[C@@H]2CO)cc1OC [dimethylcedrusin]
Wound healing properties / healing effects (the cells): little healing effects

Compound: Catechin
Effect on cell proliferation (the cells): little effect
